According to patent US20090304692A1, “TRIAZINE COMPOUNDS AS PI3 KINASE AND MTOR INHIBITORS” (Wyeth, priority 2008, published 2009):
Several values for one entry are separate records, joined by “and”; a condition that tells them apart may be missing. Equal entries are not always repeated. Where two headings read alike, the source gives them in different places.

What was measured:
Human mTOR (FLAG-TOR) = Human mTOR (FLAG-TOR) (Homo sapiens, UniProt P42345); assay: mTOR kinase assay (DELFIA format, purified enzyme); type: biochemical; conditions: read-out: IC50 mTOR
Chain of Human mTOR (FLAG-TOR) (P42345 1360-2549 limits assumed): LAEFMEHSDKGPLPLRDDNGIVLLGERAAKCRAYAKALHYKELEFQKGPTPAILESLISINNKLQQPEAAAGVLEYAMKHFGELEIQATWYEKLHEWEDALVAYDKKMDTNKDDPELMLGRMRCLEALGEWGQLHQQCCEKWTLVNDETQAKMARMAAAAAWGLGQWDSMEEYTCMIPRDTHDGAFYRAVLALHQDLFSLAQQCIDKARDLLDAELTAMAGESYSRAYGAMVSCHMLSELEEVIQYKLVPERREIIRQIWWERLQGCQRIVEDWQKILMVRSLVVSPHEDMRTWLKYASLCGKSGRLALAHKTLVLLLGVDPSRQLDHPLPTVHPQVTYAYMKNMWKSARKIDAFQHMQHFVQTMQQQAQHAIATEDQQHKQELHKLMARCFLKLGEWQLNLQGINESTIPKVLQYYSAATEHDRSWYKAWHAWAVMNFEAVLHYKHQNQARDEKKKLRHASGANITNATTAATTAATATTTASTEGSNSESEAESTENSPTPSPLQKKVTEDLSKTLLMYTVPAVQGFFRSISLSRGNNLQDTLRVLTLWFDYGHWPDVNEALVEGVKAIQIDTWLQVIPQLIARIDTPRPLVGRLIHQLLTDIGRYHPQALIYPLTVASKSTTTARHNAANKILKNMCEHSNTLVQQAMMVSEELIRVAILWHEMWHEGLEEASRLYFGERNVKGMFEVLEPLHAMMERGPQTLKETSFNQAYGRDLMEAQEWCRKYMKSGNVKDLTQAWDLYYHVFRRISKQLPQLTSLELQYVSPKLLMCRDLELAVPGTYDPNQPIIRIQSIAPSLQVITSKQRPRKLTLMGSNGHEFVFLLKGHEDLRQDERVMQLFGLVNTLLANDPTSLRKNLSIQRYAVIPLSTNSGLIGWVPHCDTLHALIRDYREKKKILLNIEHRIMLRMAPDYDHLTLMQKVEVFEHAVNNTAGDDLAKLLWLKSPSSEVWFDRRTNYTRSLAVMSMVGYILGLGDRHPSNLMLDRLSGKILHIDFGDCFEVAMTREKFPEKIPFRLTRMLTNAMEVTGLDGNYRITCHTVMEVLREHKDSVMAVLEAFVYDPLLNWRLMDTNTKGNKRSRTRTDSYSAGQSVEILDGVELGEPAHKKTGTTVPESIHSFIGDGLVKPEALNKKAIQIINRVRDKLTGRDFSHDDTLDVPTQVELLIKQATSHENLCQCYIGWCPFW

[1] = system: human breast MDA-MB-361 tumor cell line; assay: In vitro cell culture growth assay (MTS), MDA-MB-361; type: cell-based; conditions: Homo sapiens, MDA-MB-361, 72 h, MTS cell growth assay, three days after drug treatment, read-out: IC50 MDA-MB-361
[2] = system: human prostate PC3-mm2 tumor cell line; assay: In vitro cell culture growth assay (MTS), PC3-mm2; type: cell-based; conditions: Homo sapiens, PC3MM2, 72 h, MTS cell growth assay, three days after drug treatment, read-out: IC50 PC3-mm2
PI3K-α = PI3K-α (Homo sapiens, UniProt P42336); assay: PI3K-alpha fluorescence polarization assay; conditions: read-out: IC50 PI3Kα
Chain of PI3K-α (P42336 whole entry, species assumed): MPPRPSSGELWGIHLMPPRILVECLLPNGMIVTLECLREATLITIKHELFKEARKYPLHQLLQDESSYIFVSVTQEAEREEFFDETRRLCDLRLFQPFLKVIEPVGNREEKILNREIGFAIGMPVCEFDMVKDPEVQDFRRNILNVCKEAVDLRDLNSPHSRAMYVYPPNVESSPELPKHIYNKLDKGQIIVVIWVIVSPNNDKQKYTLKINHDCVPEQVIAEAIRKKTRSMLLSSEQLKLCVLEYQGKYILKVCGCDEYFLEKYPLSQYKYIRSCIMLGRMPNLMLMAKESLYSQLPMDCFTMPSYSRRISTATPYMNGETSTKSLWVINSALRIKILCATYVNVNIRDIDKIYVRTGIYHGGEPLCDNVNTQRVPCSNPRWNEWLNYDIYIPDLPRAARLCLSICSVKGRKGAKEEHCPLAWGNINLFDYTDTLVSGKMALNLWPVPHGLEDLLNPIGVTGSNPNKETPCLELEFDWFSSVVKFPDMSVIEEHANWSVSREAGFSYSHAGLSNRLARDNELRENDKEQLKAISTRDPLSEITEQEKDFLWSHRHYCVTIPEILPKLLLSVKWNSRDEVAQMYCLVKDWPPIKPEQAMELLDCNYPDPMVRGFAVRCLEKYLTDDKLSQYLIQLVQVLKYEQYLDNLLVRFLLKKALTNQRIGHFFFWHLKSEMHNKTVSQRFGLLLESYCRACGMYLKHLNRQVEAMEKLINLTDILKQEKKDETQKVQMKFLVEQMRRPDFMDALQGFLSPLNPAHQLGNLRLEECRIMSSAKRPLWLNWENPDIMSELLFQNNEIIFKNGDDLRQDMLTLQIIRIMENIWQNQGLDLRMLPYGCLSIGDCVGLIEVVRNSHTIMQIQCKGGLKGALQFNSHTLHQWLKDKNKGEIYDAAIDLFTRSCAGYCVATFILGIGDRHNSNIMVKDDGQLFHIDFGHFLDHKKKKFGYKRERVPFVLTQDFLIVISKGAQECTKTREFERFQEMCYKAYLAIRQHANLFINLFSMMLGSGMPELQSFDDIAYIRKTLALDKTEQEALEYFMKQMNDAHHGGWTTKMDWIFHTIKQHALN
Chain of PI3K-α (P27986 whole entry partner, species assumed): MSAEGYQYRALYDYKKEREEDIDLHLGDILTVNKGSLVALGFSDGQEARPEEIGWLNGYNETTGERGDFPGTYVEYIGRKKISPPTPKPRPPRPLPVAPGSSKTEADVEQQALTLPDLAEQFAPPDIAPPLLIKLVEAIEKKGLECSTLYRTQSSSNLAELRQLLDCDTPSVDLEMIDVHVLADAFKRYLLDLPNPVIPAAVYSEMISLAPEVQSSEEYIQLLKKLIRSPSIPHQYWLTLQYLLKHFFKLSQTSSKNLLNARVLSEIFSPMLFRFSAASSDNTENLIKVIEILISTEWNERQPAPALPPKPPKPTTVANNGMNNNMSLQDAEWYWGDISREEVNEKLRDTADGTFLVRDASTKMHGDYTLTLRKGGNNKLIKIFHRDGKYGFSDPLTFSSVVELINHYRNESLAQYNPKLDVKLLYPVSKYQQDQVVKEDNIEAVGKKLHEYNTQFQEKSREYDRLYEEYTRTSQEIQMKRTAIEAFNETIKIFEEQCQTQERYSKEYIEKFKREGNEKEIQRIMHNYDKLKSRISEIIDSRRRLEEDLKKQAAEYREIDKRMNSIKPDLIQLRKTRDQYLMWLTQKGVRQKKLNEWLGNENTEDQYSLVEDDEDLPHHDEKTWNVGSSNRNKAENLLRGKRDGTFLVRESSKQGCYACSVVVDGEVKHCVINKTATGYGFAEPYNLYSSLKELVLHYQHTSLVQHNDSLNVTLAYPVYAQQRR

PI3K-γ = PI3K-γ (Homo sapiens, UniProt P48736); assay: PI3K-gamma fluorescence polarization assay; conditions: read-out: IC50 PI3Kγ
Chain of PI3K-γ (P48736 whole entry, species assumed): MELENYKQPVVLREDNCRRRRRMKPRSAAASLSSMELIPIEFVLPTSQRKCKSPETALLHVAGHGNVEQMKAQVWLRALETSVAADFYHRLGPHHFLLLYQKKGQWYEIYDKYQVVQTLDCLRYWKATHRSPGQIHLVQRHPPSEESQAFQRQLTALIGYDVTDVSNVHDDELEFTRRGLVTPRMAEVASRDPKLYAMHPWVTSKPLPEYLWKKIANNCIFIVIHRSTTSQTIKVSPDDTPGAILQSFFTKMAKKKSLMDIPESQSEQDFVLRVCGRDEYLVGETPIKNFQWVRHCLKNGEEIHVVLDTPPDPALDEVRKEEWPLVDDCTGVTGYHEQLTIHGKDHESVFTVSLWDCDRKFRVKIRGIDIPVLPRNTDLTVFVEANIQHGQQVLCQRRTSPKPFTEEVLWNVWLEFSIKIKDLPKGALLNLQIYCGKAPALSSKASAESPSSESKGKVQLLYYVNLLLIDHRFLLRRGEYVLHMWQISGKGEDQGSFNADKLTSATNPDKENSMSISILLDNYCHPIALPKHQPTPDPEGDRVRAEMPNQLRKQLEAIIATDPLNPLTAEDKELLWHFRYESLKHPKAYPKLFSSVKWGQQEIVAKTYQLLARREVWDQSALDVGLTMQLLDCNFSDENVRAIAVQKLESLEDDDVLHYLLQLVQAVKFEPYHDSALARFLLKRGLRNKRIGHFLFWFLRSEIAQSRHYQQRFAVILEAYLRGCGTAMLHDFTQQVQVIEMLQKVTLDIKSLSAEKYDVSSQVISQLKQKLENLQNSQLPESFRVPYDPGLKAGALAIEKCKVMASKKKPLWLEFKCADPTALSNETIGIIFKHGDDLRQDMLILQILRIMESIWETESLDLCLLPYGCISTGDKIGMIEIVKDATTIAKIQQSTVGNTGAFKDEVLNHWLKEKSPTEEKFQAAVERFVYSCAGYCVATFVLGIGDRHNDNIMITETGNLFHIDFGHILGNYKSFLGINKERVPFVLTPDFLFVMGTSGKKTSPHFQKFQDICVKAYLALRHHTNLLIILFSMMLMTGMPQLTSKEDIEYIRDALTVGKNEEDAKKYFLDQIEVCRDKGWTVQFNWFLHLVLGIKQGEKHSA

Structure (SMILES) | IC50 (Human mTOR (FLAG-TOR)) | IC50 [1] [µM] | IC50 ([2]; PC3-mm2 cells) [µM] | IC50 [2] [µM] | IC50 (PI3K-α) [µM] | IC50 (PI3K-γ) [µM] | also measured
O=C(Nc1ccc(C(=O)N2CCOCC2)cc1)Nc1ccc(-c2nc(N3CCOCC3)nc(N3CCOCC3)n2)cc1 [Example 152, 1-[4-(4,6-dimorpholin-4-yl-1,3,5-triazin-2-yl)phenyl]-3-[4-(morpholin-4-ylcarbonyl)phenyl]urea] | 0.002 µM | 0.009 | – | 0.014 | 0.002 | 0.005 | –
Cc1nc(-c2ccc(NC(=O)Nc3ccc(C(=O)N(C)CCN(C)C)cc3)cc2)nc(N2CCOCC2)n1 [Example 165, N-[2-(dimethylamino)ethyl]-N-methyl-4-({[4-(4-methyl-6-morpholin-4-yl-1,3,5-triazin-2-yl)phenyl]carbamoyl}amino)benzamide] | 0.028 µM | 0.21 | – | 0.333 | 0.009 | 0.101 | –
CCCCc1nc(-c2ccc(NC(=O)Nc3ccc(C(=O)O)cc3)cc2)nc(N2CCOCC2)n1 [Example 184, 4-({[4-(4-butyl-6-morpholin-4-yl-1,3,5-triazin-2-yl)phenyl]carbamoyl}amino)benzoic acid] | 0.004 µM | 1.25 | – | 2.09 | 0.03 | 0.143 | –
CCCCc1nc(-c2ccc(NC(=O)Nc3ccncc3)cc2)nc(N2CCOCC2)n1 [Example 186, 1-[4-(4-butyl-6-morpholin-4-yl-1,3,5-triazin-2-yl)phenyl]-3-pyridin-4-ylurea] | 0.006 µM | 0.473 | – | 0.703 | 0.028 | 0.221 | –
O=C(Nc1ccncc1)Nc1ccc(-c2nc(N3CCOCC3)nc(N3C[C@@H]4C[C@H]3CO4)n2)cc1 [Example 189, 1-(4-{4-morpholin-4-yl-6-[(1S,4S)-2-oxa-5-azabicyclo[2.2.1]hept-5-yl]-1,3,5-triazin-2-yl}phenyl)-3-pyridin-4-ylurea] | 0.028 µM | 0.084 | – | 0.099 | 0.019 | 0.203 | –
COCCOc1nc(-c2ccc(NC(=O)Nc3ccncc3)cc2)nc(N2CCOCC2)n1 [Example 200, 1-{4-[4-(2-methoxyethoxy)-6-morpholin-4-yl-1,3,5-triazin-2-yl]phenyl}-3-pyridin-4-ylurea] | 0.0065 µM and 0.00645 µM | 0.162 | 0.248 | 0.248 | 0.014 | 0.128 | IC50 (PI3K-α; listed as 714): 0.0155 µM; IC50 (PI3K-γ; listed as 714): 0.069 µM
CC(=O)c1nc(-c2ccc(NC(=O)Nc3ccncc3)cc2)nc(N2CCOCC2)n1 [Example 209, 1-[4-(4-acetyl-6-morpholin-4-yl-1,3,5-triazin-2-yl)phenyl]-3-pyridin-4-ylurea] | 0.009 µM | 0.174 | – | 0.278 | 0.024 | 0.099 | –
COCCOc1nc(-c2ccc(NC(=O)Nc3ccc(C(=O)OC)cc3)cc2)nc(N2CCOCC2)n1 [Example 211, methyl 4-[({4-[4-(2-methoxyethoxy)-6-morpholin-4-yl-1,3,5-triazin-2-yl]phenyl}carbamoyl)amino]benzoate] | 0.006 µM | 0.254 | 0.389 | 0.389 | 0.08 | 0.108 | IC50 (PI3K-α; listed as 715): 0.0595 µM; IC50 (PI3K-γ; listed as 715): 0.146 µM
O=C(Nc1ccc(C(=O)O)cc1)Nc1ccc(-c2nc(C3=CCOCC3)nc(N3CCOCC3)n2)cc1 [Example 227, 4-[({4-[4-(3,6-dihydro-2H-pyran-4-yl)-6-morpholin-4-yl-1,3,5-triazin-2-yl]phenyl}carbamoyl)amino]benzoic acid] | 0.0073 µM | 1.5 | – | 4.03 | 0.023 | 0.081 | –
CC(=O)c1ccc(NC(=O)Nc2ccc(-c3nc(N4CCOCC4)nc(N4C5CCC4COC5)n3)cc2)cc1 [Example 230, 1-(4-acetylphenyl)-3-{4-[4-morpholin-4-yl-6-(3-oxa-8-azabicyclo[3.2.1]oct-8-yl)-1,3,5-triazin-2-yl]phenyl}urea] | 0.0012 µM and 0.00015 µM | – | < 0.031 | – | 0.022 | 0.119 | IC50 ([1]; MDA-MB-361 cells): < 0.031 µM; IC50 (PI3K-α; listed as 719): 0.0175 µM; IC50 (PI3K-γ; listed as 719): 0.096 µM
CCc1nc(-c2ccc(NC(=O)Nc3ccc(C(=O)O)cc3)cc2)nc(N2CCOCC2)n1 [Example 233, 4-({[4-(4-ethyl-6-morpholin-4-yl-1,3,5-triazin-2-yl)phenyl]carbamoyl}amino)benzoic acid] | 0.0079 µM | 1.21 | – | 3.34 | 0.055 | 0.121 | –

The next lines start with results.

IC50 (Human mTOR (FLAG-TOR)) | IC50 [1] [µM] | IC50 ([2]; PC3-mm2 cells) [µM] | IC50 [2] [µM] | IC50 (PI3K-α) [µM] | IC50 (PI3K-γ) [µM] | Structure (SMILES) | also measured
0.0245 µM | 0.805 | 0.857 | 0.857 | 0.02 | 0.183 | N#Cc1ccc(NC(=O)Nc2ccc(-c3nc(N4CCOCC4)nc(N4CCC5(CC4)OCCO5)n3)cc2)cc1 [Example 134, 1-(4-cyanophenyl)-3-{4-[4-(1,4-dioxa-8-azaspiro[4.5]dec-8-yl)-6-morpholin-4-yl-1,3,5-triazin-2-yl]phenyl}urea] | IC50 (PI3K-γ; listed as 709): 0.182 µM
0.034 µM | 0.533 | 0.509 | 0.509 | 0.015 | 0.143 | Cc1cc(NC(=O)Nc2ccc(-c3nc(N4CCOCC4)nc(N4CCC5(CC4)OCCO5)n3)cc2)ccn1 [Example 135, 1-{4-[4-(1,4-dioxa-8-azaspiro[4.5]dec-8-yl)-6-morpholin-4-yl-1,3,5-triazin-2-yl]phenyl}-3-(2-methylpyridin-4-yl)urea] | IC50 (PI3K-α; listed as 710): 0.0155 µM; IC50 (PI3K-γ; listed as 710): 0.144 µM
0.00855 µM | 0.582 | 0.551 | 0.551 | 0.009 | 0.117 | O=C(Nc1ccncc1)Nc1ccc(-c2nc(-c3cnc4ccccc4c3)nc(N3CCOCC3)n2)cc1 [Example 137, 1-[4-(4-morpholin-4-yl-6-quinolin-3-yl-1,3,5-triazin-2-yl)phenyl]-3-pyridin-4-ylurea] | IC50 (PI3K-α; listed as 712): 0.0095 µM
0.03 µM | 0.328 | – | 0.675 | 0.039 | 0.155 | Cc1nc(-c2ccc(NC(=O)Nc3ccncc3)cc2)nc(N2CCOCC2)n1 [Example 161, 1-[4-(4-methyl-6-morpholin-4-yl-1,3,5-triazin-2-yl)phenyl]-3-pyridin-4-ylurea] | –
0.0039 µM and 0.0032 µM | 0.0107 | 0.0283 | 0.0283 | 0.002 | 0.009 | CN1CCN(C(=O)c2ccc(NC(=O)Nc3ccc(-c4nc(C5=CCOCC5)nc(N5CCOCC5)n4)cc3)cc2)CC1 [Example 163, 1-{4-[4-(3,6-dihydro-2H-pyran-4-yl)-6-morpholin-4-yl-1,3,5-triazin-2-yl]phenyl}-3-{4-[(4-methylpiperazin-1-yl)carbonyl]phenyl}urea] | IC50 ([1]; MDA-MB-361 cells): 0.0107 µM; IC50 (PI3K-α; listed as 507): 0.0016 µM; IC50 (PI3K-γ; listed as 507): 0.0087 µM
0.06 µM | 0.134 | – | 0.249 | 0.004 | 0.033 | Cc1nc(-c2ccc(NC(=O)Nc3ccc(C(=O)N4CCN(C)CC4)cc3)cc2)nc(N2CCOCC2)n1 [Example 166, 1-[4-(4-methyl-6-morpholin-4-yl-1,3,5-triazin-2-yl)phenyl]-3-{4-[(4-methylpiperazin-1-yl)carbonyl]phenyl}urea] | –
0.001 µM | 0.096 | – | 0.093 | 0.044 | 0.144 | C=C(OCC)c1nc(-c2ccc(NC(=O)Nc3ccncc3)cc2)nc(N2CCOCC2)n1 [Example 199, 1-{4-[4-(1-ethoxyvinyl)-6-morpholin-4-yl-1,3,5-triazin-2-yl]phenyl}-3-pyridin-4-ylurea] | –
0.051 µM and 0.055 µM | 3.92 | 7.17 | 7.17 | 0.046 | 0.28 | O=C(Nc1ccncc1)Nc1ccc(-c2nc(CCNc3ccncc3)nc(N3CCOCC3)n2)cc1 [Example 228, 1-(4-{4-morpholin-4-yl-6-[2-(pyridin-4-ylamino)ethyl]-1,3,5-triazin-2-yl}phenyl)-3-pyridin-4-ylurea] | IC50 (PI3K-α; listed as 718): 0.0405 µM; IC50 (PI3K-γ; listed as 718): 0.21 µM
0.0025 µM | 0.02 | – | 0.121 | 0.004 | 0.063 | CCCCc1nc(-c2ccc(NC(=O)Nc3ccc(C(=O)NCCN(C)C)cc3)cc2)nc(N2CCOCC2)n1 [Example 231, 4-({[4-(4-butyl-6-morpholin-4-yl-1,3,5-triazin-2-yl)phenyl]carbamoyl}amino)-N-[2-(dimethylamino)ethyl]benzamide] | –
0.083 µM | 0.038 | – | 0.177 | 0.006 | 0.037 | CCCCc1nc(-c2ccc(NC(=O)Nc3ccc(C(=O)N4CCN(C)CC4)cc3)cc2)nc(N2CCOCC2)n1 [Example 232, 1-[4-(4-butyl-6-morpholin-4-yl-1,3,5-triazin-2-yl)phenyl]-3-{4-[(4-methylpiperazin-1-yl)carbonyl]phenyl}urea] | –
